Laboratory results as given in patent US6911537B2, “Xenobiotic compound modulated expression systems and uses therefor” (The Salk Institute for Biological Studies, priority 1998, dated 2005).
Where two headings read alike, the source gives them in different places.

Experiments:
hGRα = biological target: T1, hGRα (Homo sapiens, UniProt P04150); experiment: Activation of hGRα on MTV-luc; assay type: cell-based; settings: 50 μM (FIG. 7D; 50 mM in FIG. 5 legend)
T1 construct: expressed in transfected cells
T1 sequence (P04150 1-777): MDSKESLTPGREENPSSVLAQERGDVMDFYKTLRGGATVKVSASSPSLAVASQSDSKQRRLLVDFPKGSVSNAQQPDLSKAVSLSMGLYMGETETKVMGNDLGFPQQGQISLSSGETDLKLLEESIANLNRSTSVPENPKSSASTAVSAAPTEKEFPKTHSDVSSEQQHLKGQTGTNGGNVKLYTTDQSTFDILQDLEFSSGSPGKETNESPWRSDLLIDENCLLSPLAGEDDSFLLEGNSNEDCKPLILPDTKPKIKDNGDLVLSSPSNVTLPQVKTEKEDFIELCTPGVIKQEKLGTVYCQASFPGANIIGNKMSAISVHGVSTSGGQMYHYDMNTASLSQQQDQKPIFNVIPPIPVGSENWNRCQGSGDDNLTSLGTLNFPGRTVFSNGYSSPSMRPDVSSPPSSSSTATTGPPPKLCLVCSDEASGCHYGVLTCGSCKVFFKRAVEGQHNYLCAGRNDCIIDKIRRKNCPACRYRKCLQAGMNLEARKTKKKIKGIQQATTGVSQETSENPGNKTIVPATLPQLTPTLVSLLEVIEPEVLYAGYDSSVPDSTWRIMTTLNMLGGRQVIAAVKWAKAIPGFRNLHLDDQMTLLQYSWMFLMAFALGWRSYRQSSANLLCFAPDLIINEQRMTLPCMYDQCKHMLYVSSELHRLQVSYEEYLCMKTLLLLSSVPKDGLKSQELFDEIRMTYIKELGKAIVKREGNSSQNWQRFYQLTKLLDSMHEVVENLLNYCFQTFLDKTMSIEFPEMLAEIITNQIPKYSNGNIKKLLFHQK
Method: FIG. 5 further illustrates the broad ligand specificity of SXR. […] 6β-hydroxylated, non-reduced, 5α and 5β reduced forms of corticosterone were tested for their ability to activate GAL-SXR on tk(MH100)4-luc and hGRa on MTV-luc at […].
6β-hydroxylated, non-reduced, 5α and 5β reduced forms of corticosterone were tested for their ability to activate GAL-hSXR on tk(MH100)4-luc (lefthand group of 5 columns) and hGRα on MTV-luc at 50 μM (righthand group of 5 columns). […] In each group of columns: column 1=solvent; column 2=corticosterone; column 3=5α-tetrahydrocorticosterone; column 4=5β-tetrahydrocorticosterone; and column 5=6β-OH-corticosterone.

SXR [1] = biological target: T2, SXR (Homo sapiens, UniProt O75469)
T2 sequence (O75469 1-434): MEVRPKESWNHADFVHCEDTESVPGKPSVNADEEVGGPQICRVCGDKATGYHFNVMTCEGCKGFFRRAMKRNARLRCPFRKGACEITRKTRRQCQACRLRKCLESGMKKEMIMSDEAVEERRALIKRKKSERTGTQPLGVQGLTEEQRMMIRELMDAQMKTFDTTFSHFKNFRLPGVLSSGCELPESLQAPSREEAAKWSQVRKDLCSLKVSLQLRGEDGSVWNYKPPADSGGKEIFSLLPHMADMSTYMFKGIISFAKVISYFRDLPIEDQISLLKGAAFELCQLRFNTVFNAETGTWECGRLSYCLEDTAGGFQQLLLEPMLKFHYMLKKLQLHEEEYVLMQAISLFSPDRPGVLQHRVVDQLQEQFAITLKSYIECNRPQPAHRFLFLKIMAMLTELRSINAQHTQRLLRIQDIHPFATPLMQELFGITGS
T2 sequence (P19793 1-462 partner): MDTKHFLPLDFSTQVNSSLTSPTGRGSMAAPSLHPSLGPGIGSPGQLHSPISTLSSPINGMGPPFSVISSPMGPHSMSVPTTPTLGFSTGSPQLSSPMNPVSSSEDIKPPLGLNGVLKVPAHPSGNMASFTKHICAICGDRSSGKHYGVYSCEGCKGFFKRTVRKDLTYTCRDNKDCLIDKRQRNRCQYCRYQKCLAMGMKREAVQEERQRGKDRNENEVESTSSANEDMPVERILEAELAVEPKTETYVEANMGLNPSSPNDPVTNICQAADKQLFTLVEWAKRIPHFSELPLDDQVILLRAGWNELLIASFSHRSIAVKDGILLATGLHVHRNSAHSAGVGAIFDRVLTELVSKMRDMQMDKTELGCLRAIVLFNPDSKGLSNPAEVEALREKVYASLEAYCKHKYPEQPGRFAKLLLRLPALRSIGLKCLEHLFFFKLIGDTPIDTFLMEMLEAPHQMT
Source text: (§4) Thus, the protein coding region of SXR was PCR amplified and subcloned into NcoI and BamH1 sites of the vector pCDG1 (see Blumberg et al., supra). During this process the putative initiator Leu was converted to Met with a Kozak consensus sequence CCATGG.

SXR [2] = biological target: T3, SXR (Homo sapiens, UniProt O75469); remark: listed apart in the source
T3 sequence (O75469 1-434): T2 sequence (O75469 1-434)
Method: (§1) The PCR-amplified sequences and target mutagenesis were confirmed by DNA sequencing.
(§2) All compounds were purchased from Sigma.
(§3) A panel of natural and synthetic steroid and nonsteroid compounds were tested for their ability to activate SXR and/or PXR in transfection-based assays using primary rat hepatocytes as recipient cells and the cellular promoters of the rat CYP3A23 gene or the human CYP3A4 gene as reporters.

CYP3A11 gene = settings: single dose 24 h before sacrifice; for Induction of liver CYP3A11 expression in Alb-SXR transgenic mice: RIF 5 mg/kg, BRL 20 mg/kg, troglitazone and ciglitazone 150 mg/kg by gavage, CTZ 50 mg/kg, PCN 40 mg/kg i.p.; for Induction of liver CYP3A11 expression in wild type / nontransgenic mice: same doses as in transgenic mice
Method: The animals were allowed free access to food and water at all times. […] When necessary, mice were treated with a single intraperitoneal injection of DEX (50 mg/kg), PCN (40 mg/kg), or CTZ (50 mg/kg).
To detect specific transcripts, [^32P]-cDNA probes labeled by Random Primer Labeling Kit (Boringher) were hybridized to the membranes. The probe used to detect transgene contains both the SXR cDNA and the SV40 sequences. […] The filters were subsequently stripped and rehybridized with a murine glyceraldehyde-3-phosphate dehydrogenase (GAPDH) cDNA probe for RNA loading normalization.
Tissues were harvested 24 h later and subjected to Northern blot analysis.

mouse PXR = biological target: T4, mouse PXR (Mus musculus, UniProt O54915); experiment: Transfection-based reporter assay in CV-1 cells, mouse PXR; settings: 50 μM, tamoxifen 5 μM (FIG. 7B)
T4 sequence (O54915 1-431): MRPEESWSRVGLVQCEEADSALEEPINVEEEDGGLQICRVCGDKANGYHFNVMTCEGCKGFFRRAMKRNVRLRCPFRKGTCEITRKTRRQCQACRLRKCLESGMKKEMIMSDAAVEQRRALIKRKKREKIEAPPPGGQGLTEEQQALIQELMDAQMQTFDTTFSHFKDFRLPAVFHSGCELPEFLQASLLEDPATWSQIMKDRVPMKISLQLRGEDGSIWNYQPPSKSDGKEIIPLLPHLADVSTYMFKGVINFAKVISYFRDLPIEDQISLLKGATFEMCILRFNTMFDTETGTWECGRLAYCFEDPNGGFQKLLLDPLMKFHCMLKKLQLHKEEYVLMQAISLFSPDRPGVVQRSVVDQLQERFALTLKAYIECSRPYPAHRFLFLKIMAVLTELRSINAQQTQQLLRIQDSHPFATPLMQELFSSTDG
Source text: FIGS. 7A-C are bar graphs illustrating the ability of a panel of compounds to activate a representative of three members of the nuclear receptor superfamily, human SXR (FIG. 7A); mouse PXR (FIG. 7B); and human estrogen receptor alpha (hERα; FIG. 7C).

endogenous PXR [3] = biological target: T5, endogenous PXR (Rattus norvegicus, UniProt Q9R1A7); settings: hepatocytes
T5 sequence (Q9R1A7 1-431): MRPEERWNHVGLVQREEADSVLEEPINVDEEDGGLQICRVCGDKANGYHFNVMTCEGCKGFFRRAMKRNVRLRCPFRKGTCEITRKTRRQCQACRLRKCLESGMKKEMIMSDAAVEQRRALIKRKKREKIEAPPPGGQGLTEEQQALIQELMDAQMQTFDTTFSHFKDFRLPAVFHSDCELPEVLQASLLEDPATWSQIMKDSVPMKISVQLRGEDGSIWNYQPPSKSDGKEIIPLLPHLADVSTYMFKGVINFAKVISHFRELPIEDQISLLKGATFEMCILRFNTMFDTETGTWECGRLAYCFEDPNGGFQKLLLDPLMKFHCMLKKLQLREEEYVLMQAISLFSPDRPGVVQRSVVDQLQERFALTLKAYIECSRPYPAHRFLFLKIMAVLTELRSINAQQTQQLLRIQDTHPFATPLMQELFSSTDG
Method: as §1, §2, §3

SXR [4] = biological target: T2, SXR; experiment: Transfection-based reporter assay in CV-1 cells, GAL4-SXR or full-length SXR; parameters: Activation of SXR response elements (DR-3, DR-4, DR-5) by full-length SXR: dose or concentration left out as unconfirmed; settings: for Activation of SXR in transfection-based assays: GAL4-SXR LBD chimera or full-length SXR, CV-1 cells, steroids at high doses, up to 50 mM [sic]; for Activation of SXR response elements (DR-3, DR-4, DR-5) by full-length SXR: cotransfection, panel of steroids as printed (FIG. 4)
Source text: as §4

endogenous PXR [5] = biological target: T5, endogenous PXR; experiment: Human CYP3A4 cellular promoter reporter in primary rat hepatocytes, endogenous receptor; settings: rodent cellular environment (FIG. 8B)
Source text: as §1, §2

[6] = clinical trials, of 2510 patients; cited from earlier work

In the case of C[C@]12CC[C@@H](O)C[C@@H]1CC[C@@H]1[C@@H]2[C@@H](O)C[C@]2(C)[C@@H](C(=O)CO)CC[C@@H]12 [5α, 5α-tetrahydrocorticosterone], the “Activation of hGRα on MTV-luc by corticosterone derivatives” value (from here on “Activation of hGRα on MTV-luc”) (hGRα) is reported as “slightly active” and the “Activation of GAL-SXR on tk(MH100)4-luc by corticosterone derivatives” value (SXR [1]) is reported as “effective SXR activators”.

With C[C@]12CCC(O)C[C@H]1CC[C@@H]1[C@@H]2[C@@H](O)C[C@]2(C)[C@@H](C(=O)CO)CC[C@@H]12 (stereo partly drawn) [5β, 5β-tetrahydrocorticosterone] the “Activation of hGRα on MTV-luc” value (hGRα) was “completely inactive” and the “Activation of GAL-SXR on tk(MH100)4-luc by corticosterone derivatives” value (SXR [1]) was “effective SXR activators”.

In the case of C[C@]12C[C@H](O)[C@H]3[C@@H](C[C@@H](O)C4=CC(=O)CC[C@@]43C)[C@@H]1CC[C@@H]2C(=O)CO [6β-hydroxy corticosterone], the “Activation of hGRα on MTV-luc” value (hGRα) is reported as “slightly active”.

With Clc1ccccc1C(c1ccccc1)(c1ccccc1)n1ccnc1 [CTZ, clotrimazole] the “Activation of CYP3A23 promoter reporter with mutated DR-3 element (DR3/M1, DR3/M2)” value (SXR [2]) was “abolished”, the “Inducibility of CYP3A23 promoter reporter with DR-3 replaced by IR-6 element (DR3/IR6)” value (SXR [2]) was “rescueS the inducibility” and the “Induction of liver CYP3A11 expression in Alb-SXR transgenic mice” value (CYP3A11 gene) was “higher level”. The “Induction of liver CYP3A11 expression in wild type / nontransgenic mice” value (CYP3A11 gene) was “moderate level”.

For CC(=O)[C@H]1[C@H](C#N)C[C@H]2[C@@H]3CC=C4C[C@@H](O)CC[C@]4(C)[C@H]3CC[C@@]21C [PCN, pregnenolone-16-carbonitrile], the “Activation of mouse PXR” value (mouse PXR) was “preferentially activated”, the “Activation of CYP3A23 promoter reporter in the absence of SXR” value (endogenous PXR [3]) was “most potent and efficacious tested activators” and the “Activation of CYP3A23 promoter reporter with mutated DR-3 element (DR3/M1, DR3/M2)” value (SXR [2]) was “abolished”. For the same compound, the “Inducibility of CYP3A23 promoter reporter with DR-3 replaced by IR-6 element (DR3/IR6)” value (SXR [2]) was “rescueS the inducibility”, the “Induction of CYP3A23 promoter reporter with co-transfection of SXR” value (SXR [2]) was “remained unchanged” and the “Induction of liver CYP3A11 expression in Alb-SXR transgenic mice” value (CYP3A11 gene) was “equally efficacious CYP3A11 inducer”. For the same compound, the “Induction of liver CYP3A11 expression in wild type / nontransgenic mice” value (CYP3A11 gene) was “equally efficacious CYP3A11 inducer”, the “Activation of SXR in transfection-based assays” value (SXR [4]) was “activated” and the “Activation of SXR response elements (DR-3, DR-4, DR-5) by full-length SXR” value (SXR [4]) was “among the best activators”. The “Activation of human CYP3A4 promoter reporter via endogenous PXR” value (endogenous PXR [5]) was “can be activated” and the “Activation of human SXR by compounds known to induce CYP3A4” value (SXR [1]) was “weak activator”.

In the case of C[C@]12CC[C@@H]3c4ccc(O)cc4CC[C@H]3[C@@H]1CC[C@@H]2O [estradiol, 17β-estradiol], the “Activation of mouse PXR” value (mouse PXR) is reported as “similarly activated”, the “Induction of CYP3A23 promoter reporter with co-transfection of SXR” value (SXR [2]) is reported as “significant induction” and the “Activation of human SXR by compounds known to induce CYP3A4” value (SXR [4]; 50 μM, tamoxifen 5 μM (FIG. 7A)) is reported as “most potent activators”. For the same compound, the “Activation of SXR in transfection-based assays” value (SXR [4]) was “remarkably effective activators” and the “Activation of SXR response elements (DR-3, DR-4, DR-5) by full-length SXR” value (SXR [4]) was “among the best activators”.

For C[C@]12CC[C@H]3[C@@H](CCC4=CC(=O)CC[C@@]43C)[C@@H]1CC[C@@H]2O [testosterone], the “Activation of mouse PXR” value (mouse PXR) was “similarly activated” and the “Activation of SXR in transfection-based assays” value (SXR [1]) was “activated”.

For Cc1c(C)c2c(c(C)c1O)CCC(C)(COc1ccc(CC3SC(=O)NC3=O)cc1)O2 (stereo not shown) [troglitazone], the “Incidence of hepatotoxicity (alanine aminotransferase level > three times the upper limit of normal)” value [6] is listed as 1.9%.
